Where two headings read alike, the source gives them in different places.
Tests used:
[1] = acute toxicity in dose escalating study; format: in vivo, mice; conditions: 100 mg/kg intraperitoneally
Description: Acute toxicity in dose escalating study: We investigated the efficacy of stilbene 4a in vivo using mouse xenograft model. First we determined the maximal tolerated dose of stilbene 4a since it has a higher potency in vitro. […] Subsequently mice fully recovered 30 min after injection.

[2] = test system: tubulin (colchicine site); assay: [3H]-colchicine competition for binding tubulin; conditions: 20 min, 37° C.
Description: FIG. 3a-d. […] (a) Effect of stilbene 4a. Pure tubulin was incubated with various concentrations of stilbene 4a, 10 μM nocodazole, and 10 μM paclitaxel in the polymerization buffer. The OD at 340 nm was monitored every minute by SpectraMAX 250 and plotted against time. (b) Effect of stilbene 4c. (c) Comparison of same concentrations of stilbenes 4a, 4a trans, 4c and 4c trans with control. […] The radioactivity of the tubulin was counted. […] All experiments were done in triplicates.
Tubulin retained in the Microcon was washed three times with PBS. The radioactivity of the final concentrated tubulin was determined by a scintillation counter.

[3] = test system: UCI101 cells; assay: immunofluorescent staining of tubulin, UCI101; format: cell-based; conditions: CA4 10 nM, stilbene 4a 100 nM, 5b 3 μM; 16 hours
Excerpt: Nuclei were stained with DAPI.

[4] = water solubility of stilbene and carbamate prodrug (salts and free base); format: physicochemical; conditions: for solubility: water, 20 °C, 20° C.
Description: Stilbene prodrugs may be made by attaching to a stilbene derivative of interest (e.g. a stilbene derivative with anti-tumor activity), chemical groups (or moieties) that render the stilbene derivative more water soluble than before such a modification is carried out. By “water soluble” we mean that more than 20 mg compound can be fully dissolved in 1 mL of water. Further, the chemical groups that are attached to the stilbene derivative to make the derivative water soluble are labile (i.e. removable) in that, upon exposure to in vitro or in vivo hydrolyzing conditions, the chemical groups are removed or dissociated from the stilbene derivative by hydrolysis, releasing the active, anti-tumor form of the stilbene derivative. The chemical groups which are attached may themselves be biologically active, and are, at least, not biologically injurious to cells or mammals. […] As illustrated, morfolinoethyl-urea, morfolinoethyl-carbamate and triethylene glycol (TEG) groups (5a, 5b, 5c, respectively) may be used for this purpose.

[5] = test system: Chk2−/− cells; assay: cell cycle analysis, Chk2-/- MDA-MB231 derivative; format: cell-based
Description: Cells were treated with various concentrations of stilbene 4a or CA4 for 16 hours followed by PI staining and FACscan analysis. […] A unique feature of stilbene 4a was noted when cells were treated with 30 nM.
Due to the structural similarity between stilbene 4a and CA4, we investigated the difference in the biological activity of these two compounds in MDA-MB231 breast cancer cells and their Chk2−/− derivatives. […] MDA-MB231 cells were treated with 10 nM stilbene 4a or 1 nM CA4. […] However, a difference in cell cycle change was observed following treatment with 30 nM of stilbene 4a versus 3 nM of CA4. […] This was also the case for cells treated with 100 nM stilbene 4a. A significant subG1/0 population was also noted. […] One possible effect could be a DNA damage response, which is a common mechanism of multiple chemotherapeutic agents but not one of pure microtubule-interfering agents such a paclitaxel or vincristine. […] We then obtained conditional Chk1−/− and Chk2−/− cells, which were derived from the same MDA-MB231 cells for the same flow cytometry analysis. […] In contrast, Chk2−/− cells were more sensitive to stilbene 4a. […] This mechanism is not obvious in higher drug concentrations at which the G2 arrest from microtubule interference is dominant. Therefore, in addition to their microtubule interfering effect, stilbenes have another mechanism to induce cell death. Thus, the use of a Chk2 inhibitor in combination with stilbenes may be a viable approach to enhancing the beneficial therapeutic effects of stilbenes.

[6] = test system: SNU423 hepatocellular carcinoma cells; assay: Alamar Blue cell growth inhibition, SNU423; format: cell-based
Outline: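 Cells at 50% confluence were treated for 48 h in triplicate with 0-10 μM compound or 0.1% DMSO vehicle. Alamar Blue was added at 1/10 volume for 2 h, and absorbance at 570 and 600 nm gave % growth via the manufacturer's extinction-coefficient formula relative to vehicle controls.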

[7] = test system: UCI101 ovarian cancer cells; assay: Western blot of signal transduction events, UCI101; format: cell-based
Outline: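 UCI101 cells exposed to 0.1 μM compound for 0, 4, 8, 16 and 36 h, then harvested and analysed by Western blot. Probes covered G2-M regulators Cdc2, Cdc25c and BubR1, plus Akt phosphorylation.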

In the case of `COc1cc(/C=C\c2ccc(OC)c(N)c2)cc(OC)c1` [4a, (Z)-5-[2-(3,5-Dimethoxy-phenyl)-vinyl]-2-methoxy-phenylamine], the “acute toxicity at 100 mg/kg intraperitoneally” value [1] is reported as “no sign of weakness was observed”, the “competition with [3H]-colchicine for tubulin” value [2] is reported as “dose-dependent suppression of tubulin-colchicine interaction” and the microtubule pattern [3] is reported as “partial disruption of microtubules”. For the same compound, the “water solubility (in words)” value [4] was “limited solubility”, the solubility ([4]; HCl salt, read-out: water solubility, x HCl) was 6 mg/mL and the solubility ([4]; free base, read-out: water solubility, Free base) was less than 1 mg/mL. The solubility ([4]; oxalate salt, read-out: water solubility, x (COOH)2) was less than 1 mg/mL, the “cell cycle change at 10 nM” value ([5]; 10 nM) was “a significant subG1/0 population developed without G2 arrest” and the “change of effective concentration versus MDA-MB231” value ([5]; 16 hours) was “decreased by three fold”. The “relative potency” value ([6]; SNU423) was “much more potent than the trans counterparts”, the “effective concentration, blocking cell proliferation” value ([6]; SNU423, 48 hours) was 0.03 µM and the “phosphorylation of Stat3” value ([7]; 0.1 μM) was “transient increase in phosphorylation at 4 and 8 hours”. The “phosphorylation of Cdc2 at Tyr15” value ([7]; 0.1 μM, 16 hours) was “decreased dramatically” and the “phosphorylation of Chk1” value ([7]; 36 hours) was “increased uniquely at 36 hours”.

— patent publication US7781580B2, “Stilbene derivatives as new cancer therapeutic agents” (Virginia Commonwealth University, priority 2007, dated 2010)
